Results reported in patent publication US8207136B2, “Nucleoside compounds and methods of use thereof” (The Board of Trustees of the University of Illinois, priority 2005, dated 2012).
Like-named read-outs stand apart in the source and are kept apart here. Starred links: 1 amine or outer side, 2 acyl side, 3 side chain; linkers in the order of their positions; H or OH if unused. Positions of bridges follow the written chain, without caps; N, C: chain ends. Non-standard residues stand in square brackets, D forms with d. Residues, ends and D or L forms follow the SMILES beside them. Chains are numbered I, II in the order given. Actinocin(9to1) = Cc1c2oc3c(C)ccc(C(=O)[*:1])c3nc-2c(C(=O)[*:2])c(N)c1=O; NMeV = CN[C@H](C(=O)O)C(C)C; Sar = CNCC(=O)O

Experiments:
RNA polymerase II = molecular target: T1, RNA polymerase II (Homo sapiens, UniProt P24928); assay: Nuclear run-on assay, nuclei isolated from untreated HCT-116 cells then treated; assay type: biochemical; details: 50 μM ARC, 50 μM DRB or 2 μg/ml α-amanitin
T1 construct: nuclei were isolated from normally growing untreated HCT-116 cells and treated with each of these agents; endogenous in cells; host or cells: nuclei of HCT-116 colon cancer cells
Experimental: (§1) Run-on assays with isolated nuclei were performed as described. Briefly, cells treated with the indicated agents were lysed with hypotonic buffer (10 mM Tris-HCl pH 7.4, 10 mM NaCl and 35 mM MgCl2) and nuclei collected by centrifugation and resuspended in nuclear storage buffer (50 mM HEPES pH 8.0, 5 mM MgCl2, 0.5 mM DTT, 1 mg/ml BSA and 25% (v/v) glycerol) at about 5×10^8 nuclei/ml and stored at −80° C. Transcription reactions were performed in 200 μl volume consisting of 1×10^7 nuclei in the presence of 0.12 M KCl, 7 mM Mg(Ac)2, 25 μCi of [^32P]GTP, 500 μM ATP, UTP and CTP at 30° C. Samples were collected at various time points (18 μl/time point—0, 5, 10, 20 and 30 min) and the reaction terminated by the addition of 57 μl of Sarkosyl solution (1% Sarkosyl, 0.1 M Tris pH 8.0, 0.1 M NaCl, 10 mM EDTA and 200 μg/ml tRNA). The stopped reactions were transferred to Whatman DE81 paper, and washed four times with wash buffer (5% K2HPO4 and 0.3% Na4P2O7) for 10 min, followed by a 5-min water wash. Then the paper was briefly rinsed with 95% ethanol and allowed to dry completely. Radiation was quantitated using a liquid scintillation counter.
In order to evaluate the ability of ARC to bind to and inhibit RNA polymerase II directly (like α-amanitin) or indirectly (like DRB), nuclei were isolated from normally growing untreated HCT-116 cells and treated with each of these agents, and then assayed for rate of transcription by nuclear run-on assay.

[1] = system: RNA polymerase II transcription; assay: Nuclear run-on assay, nuclei from treated HCT-116 cells; assay type: cell-based, human; details: HCT-116 cells treated 2 hours with 1 mM
Experimental: as §1
Some transcriptional inhibitors such as DRB and flavopiridol repress p21 and hdm2 while increasing p53 levels. […] To evaluate this activity, HCT-116 cells were treated with one of DMSO (control), ARC or DRB, and nuclei were isolated. These nuclei were assayed for rate of transcription either in the presence or absence of α-amanitin using the nuclear run-on assay. […] If ARC inhibits polymerase I and III transcription, the rate of transcription should be substantially lower in the ARC+α-amanitin (FIG. 2A; curve 5) when compared with DMSO+α-amanitin (FIG. 2A; curve 4). However both of these rates of transcription were similar, implying that ARC might preferentially affect only RNA polymerase II transcription.

[2] = system: LIM1215 colon cancer cells; assay: Apoptosis by PI staining and flow cytometry in LIM1215 cells; assay type: cell-based, human; details: 50 μM, 48 hours
Experimental: For Flow Cytometry, cells were fixed in 70% ethanol and stored at −20° C. until further analysis. Equal numbers of fixed cells were then stained with PI solution (0.1% Triton X-100, 0.2 mg/ml DNase free RNase, 0.02 mg/ml propidium iodide) made in PBS for 15 min at 37° C. and analyzed by a flow cytometer.
In order to evaluate the extent to which ARC induces apoptosis relative to that of the other known nucleoside analog DRB, LIM1215 colon cancer cells were treated with either ARC or DRB for 48 hours.

HUVECs [3] = details: literature value [28]; read-out: IC50, cord formation; cited from earlier work
HUVECs [4] = details: literature value [28]; read-out: IC50, cell motility; cited from earlier work
p53 = assay: Gel shift assay with nuclear extracts and p53 consensus probe; assay type: cell-based, human; details: MCF-7 nuclear extracts
Experimental: Either purified p53 protein or nuclear extracts were used in the gel shift assays. For preparation of nuclear extracts, cells treated either with DMSO or different agents (doxorubicin, ARC and actinomycin D) were harvested 24 hours later and lysed in hypotonic buffer (10 mM HEPES pH 7.9, 1.5 mM MgCl2, 10 mM KCl, 0.2 mM PMSF, 0.5 mM DTT, 1 mM Na3VO4, 1 mM NaF, 1 mM Aprotinin and 1 mM Leupeptin), nuclei pelleted and treated with high-salt buffer (20 mM HEPES pH 7.9, 20% (v/v) glycerol, 1.5 mM MgCl2, 0.5 M KCl, 0.2 mM EDTA, 0.2 mM PMSF, 0.5 mM DTT, 1 mM Na3VO4, 1 mM NaF, 1 mM Aprotinin and 1 mM Leupeptin). Nuclear extracts (10 μg) or purified p53 protein (100 ng) were incubated with 0.5 ng of p53 consensus double-stranded oligos (5′-TACAGAACATGTCTAAGCATGCTGGGGACT-3′; Santa Cruz Biotechnology) that were labeled with [γ^32P]ATP. As a control, anti-p53 antibody (PAb421, EMD Biosciences) was used to supershift the p53/DNA complex. The reaction mixtures were resolved on a 4% acrylamide DNA-retardation gel, dried and exposed to X-ray film in the presence of intensifying screen.
Although the effects of ARC were p53-independent, ARC did affect some properties of p53. […] This is in contrast to actinomycin D, which is known to enhance the DNA binding ability of p53 [22]. […] To determine if ARC retains p53 in the cytoplasm, which may lead to decreased binding in the gel shift assays, p53 levels in nuclear lysates were examined.

CC[C@H](C)[C@@H]1NC(=O)CNC(=O)[C@@H]2Cc3c([nH]c4cc(O)ccc34)[S+]([O-])C[C@@H](NC(=O)CNC1=O)C(=O)N[C@@H](CC(N)=O)C(=O)N1C[C@H](O)C[C@H]1C(=O)N[C@@H]([C@@H](C)[C@@H](O)CO)C(=O)N2 (stereo in doubt) [α-amanitin]
rate of transcription, agent added to isolated nuclei (RNA polymerase II): dramatically inhibited transcription

OC[C@H]1O[C@@H](n2cnc3cc(Cl)c(Cl)cc32)[C@H](O)[C@@H]1O [DRB, 5,6-Dichloro-1-β-ribofuranosylbenzimidazole, reference compound]
rate of transcription versus control nuclei [1]: lower | rate of transcription, agent added to isolated nuclei (RNA polymerase II): did not affect the rate of transcription | apoptosis (PI staining, flow cytometry) [2]: 23.4%

CO[C@@H]1[C@H](OC(=O)NC(=O)CCl)CC[C@]2(CO2)[C@H]1[C@@]1(C)O[C@@H]1CC=C(C)C [TNP-470]
IC50 (HUVECs [3]): ~700 nM | IC50 (HUVECs [4]): ~600 nM

Cc1c2oc3c(C)ccc(C(=O)N[C@@H]4C(=O)N[C@H](C(C)C)C(=O)N5CCC[C@H]5C(=O)N(C)CC(=O)N(C)[C@@H](C(C)C)C(=O)O[C@@H]4C)c3nc-2c(C(=O)N[C@@H]2C(=O)N[C@H](C(C)C)C(=O)N3CCC[C@H]3C(=O)N(C)CC(=O)N(C)[C@@H](C(C)C)C(=O)O[C@@H]2C)c(N)c1=O [actinomycin D, reference compound] (I: T[dV]P[Sar][NMeV] / II: T[dV]P[Sar][NMeV]; ester I:1-I:C, II:1-II:C; linker I:N-II:N via Actinocin(9to1))
DNA binding ability of p53, agent alone (p53): increased the DNA binding ability of p53
